In ChEMBL document CHEMBL1201862, “PubChem BioAssay data set” (2004):
“And” between values parts separate entries of the source, which are not always exact repeats. Equal values may be shown once.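 Exposure lasted 48 hours, with cells grown in 96-well plates and compounds tested at five concentrations. GI50 is the concentration that inhibits growth by half.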 The source made the active and inactive calls. No stated cut-off is given here; in the data, active = GI50 up to about 1.1 µM and inactive = higher.

Columns and labels:
Experiment in all cases: growth of human tumour cells (NCI), 48 h
RXF 631 = tested on: RXF 631
PC-3 = tested on: PC-3
MDA-N = tested on: MDA-N
T47D = tested on: T47D
MDA-MB-435 = tested on: MDA-MB-435
MDA-MB-231 = tested on: MDA-MB-231
BT-549 = tested on: BT-549
Hs-578T = tested on: Hs-578T

Measured: GI50

CCOC(=O)C1=C(C)N(C2OC(COC(C)=O)C(OC(C)=O)C(OC(C)=O)C2OC(C)=O)C(=O)NC1c1ccccc1 (stereo not drawn)
inactive: RXF 631 > 100 µM

COc1cc(C(O)(CC#N)c2cc3c(cc2Br)OCO3)cc(OC)c1OC (stereo not drawn)
inactive: PC-3 28.1 µM | MDA-N 5.07 µM | T47D > 100 µM | MDA-MB-435 3 µM | MDA-MB-231 21.4 µM | BT-549 > 100 µM

CCOC(=O)c1ccc(N2C(=O)/C(=C/c3ccc(N(CCC#N)CCC#N)cc3)N=C2c2cc([N+](=O)[O-])ccc2Cl)cc1
inactive: RXF 631 > 100 µM

OCC(O)COc1ccc(Br)cc1 (stereo not drawn)
inactive: RXF 631 > 100 µM

C/C(=N/NC(=O)c1ccncc1)C(F)(F)F
inactive: PC-3 > 100 µM | T47D > 100 µM | Hs-578T > 100 µM | MDA-MB-435 > 100 µM | BT-549 > 100 µM

CC(Oc1ccc(Oc2cnc3ccc(Cl)cc3n2)cc1)C(=O)O (stereo not drawn)
inactive: T47D 92 µM and 64.4 µM | Hs-578T > 88.1 µM | MDA-MB-231 > 100 µM | BT-549 > 80.2 µM
